Laboratory results taken from patent US20060057669A1, “Inactive transcription factor tif-ia and uses thereof” (priority 2002, published 2006).
Like-named read-outs stand apart in the source and are kept apart here.

How the values were obtained:
Pol I transcription [1] = test: Pol I reporter plasmid pMrl930-BH co-transfection in NIH3T3 cells, Northern blot; type: cell-based; settings: 0.25, 0.5 or 1 μg expression vector
Procedure: (C) Phosphorylation by RSK is necessary and sufficient for enhancing TIF-IA activity in vivo. NIH3T3 cells were co-transfected with 3 μg pMrl930-BH and lor 2.5 μg of pMT2-HA-CA-RSK2 (lanes 2, 3). Transcripts from the reporter plasmid were monitored on Northern blots. An ethidium bromide stain of cellular 18S and 28S rRNA is shown below.
(C) Transcriptional activity of TIF-IAS44A in vivo. NIH3T3 cells were cotransfected with 2.5 μg Pol I reporter plasmid (pMrl930-BH) and 0.25, 0.5 or 1 μg of pcDNA3.1-TIF-IA (lanes 2-4), TIF-IAS44A (lanes 5-7). Transcripts from the reporter plasmid were monitored on Northern blots. The amount of cellular 18S and 28S rRNA is shown below.
NIH3T3, HEK293T and CLL39 cells were cultured in Dulbecco's modified Eagles medium (DMEM) supplemented with 10% fetal calf serum. Cells were transfected with 5 μg of DNA per 10^6 cells using the calcium phosphate DNA coprecipitation method. Total RNA was isolated after 48 h and analyzed on Northern blots as described (Voit et al., EMBO J. 18 (1999), 1891-1899). Cellular pre-rRNA levels were monitored by hybridization to antisense RNA complementary to the first 155 nucleotides of unprocessed 45S pre-RNA. Transcripts from the rDNA reporter plasmid were monitored by hybridization to a riboprobe that is complementary to pUC sequences inserted between the rDNA promoter and terminator sequences of pMrl930-BH. […]

Pol I transcription [2] = test: Complementation of Pol I transcription in nuclear extracts from rapamycin-treated FM3A cells; type: biochemical
Procedure: (B) Complementation of transcriptional activity in nuclear extracts from rapamycin-treated cells. Transcription reactions contained nuclear extracts (30 μg) from untreated (NE) or rapamycin-treated (NERapa) FM3A cells. In lanes 3-7, fractions containing partially purified Pol I transcription factors were added to NERapa-containing reactions.
(C) TIF-IA activates transcription in nuclear extracts form rapamycin-treated cells. Reactions were complemented with either 1 μl (lanes 2 and 5) of cellular TIF-IA (PL-650 fraction) or 20 ng (lanes 3 and 6) of immunopurified recombinant TIF-IA that has been expressed in SF9 cells.
(A) mTOR rescues transcription in vitro. Pol I transcription was assayed in nuclear extracts from rapamycin-treated FM3A cells. Reactions were supplemented with 50 ng TIF-IA (lane 1) or 10 ng, 20 ng and 30 ng of HA-mTOR (lanes 3-5).
(B) S6K1 activates Pol I transcription in extracts from rapamycin-treated cells. NERapa was supplemented with 50 ng TIF-IA (lane 1) or 100, 150 and 200 ng of GST-S6K1 (lanes 3-5) or GST-S6K1dd (lanes 6-8).
Nuclear extracts were prepared from exponentially growing (8×10^5 cells/ml), density-arrested or PD98059-treated (CN Bioscience, Bad Soden, Germany) 40 μM, 0.5 hr) or rapamycin-treated FM3A cells (ATCC, Manassas, USA). 25 μl assays contained 50 ng of template DNA (pMr600/EcoRI), 30 μg nuclear extract proteins and 12 mM Hepes-KOH, [pH8.0], 0.1 mM EDTA, 5 mM MgCl2, 80 mM KCl, 10 mM creatine phosphate, 12% (v/v) glycerol, 0.66 mM each of ATP, GTP and CTP, 0.01 mM UTP and 0.5 μCi [α-^32P]UTP (5000 Ci/mmol). After incubation for 60 min at 30° C., RNA was extracted and analyzed on non-denaturing 5% polyacrylamide gels
mTOR and S6K1 were purified from HEK293T cells overexpressing HA-tagged mTOR or GST/myc-tagged S6K1, respectively. 5×10^6 cells were lysed in 0.8 ml IP buffer, centrifuged at 10,000×g for 20 min, and the supernatants were incubated for 4 hr at 4° C. with either 15 μg anti-HA antibodies bound to 20 μl protein G-agarose (for HA-mTOR) or 20 μl packed GST-glutathione beads (for GST-myc-S6K1). […]

TIF-IA: wild-type human transcription initiation factor TIF-IA, accession No. AJ272050
transcription of the Pol I reporter (Pol I transcription [1]): enhanced transcription of the reporter | rescue of Pol I transcription in extracts from rapamycin-treated cells (Pol I transcription [2]): relieved rapamycin-mediated transcriptional repression | rescue of Pol I transcription in extracts from rapamycin-treated cells (Pol I transcription [2]; listed as recombinant TIF-IA): restored transcriptional activity
